These results are taken from patent publication US12508431B2, “Method and apparatus for electrical current therapy of biological tissue and insulin release therefrom” (ROCKY MOUNTAIN BIPHASIC, INC., priority 2019, dated 2025).

The test system of assay [1] is INS-1 cells. The experiment in a line: Transmembrane potential assay by DiBAC4(3) staining. Format: cell-based, rat. As to conditions: 30 min in staining buffer with 5 μM DiBAC4(3), valinomycin 100 nM, gramicidin 100 nM, KCl 140 mM, FIG. 8A. The protocol:
The transmembrane potential (TMP) was estimated using DiBAC4(3) staining as previously described. For these studies, INS-1 cells were grown to 95% confluency in 6-well plates. The medium was aspirated, replaced with 3 mL fresh complete medium per well, and subjected to mock stimulation or ACBPS (10 Hz, (2.5 ms)/(2.5 ms) pulse duration, 25 V magnitude) for 30 min. Immediately following the stimulation period, the medium was aspirated from each well and replaced with 2 mL per well staining buffer (20 mM HEPES, 120 mM NaCl, 2 mM KCl, 2 mM CaCl2), 1 mM MgCl2, and 5 mM glucose [pH 7.4]) containing 5 μM DiBAC4(3) with DMSO (mock and ACBPS), valinomycin (100 nM), gramicidin (100 nM) or KCl (140 mM). The cells were allowed to incubate in staining buffer at 37° C. for 30 min. Thereafter, the fluorescence intensity of DiBAC4(3) stained INS-1 cells (Ex 490 nm/Em 516 nm) was measured using a BioTek Synergy H1 plate reader programmed to acquire 49 (7×7) individual measurements per well.

Assay [2] relates to INS-1 cells. It is filed as cell-based, rat. The settings on record: FIG. 5A/5B; for ACBPS-induced insulin release: ACBPS 10 Hz, 25 V; for basal insulin release: mock stimulation. On the procedure:
A rat insulinoma cell line INS-1 was obtained and were grown in 6-well polystyrene culture plates as attached monolayers in RPMI1640 culture medium supplemented with 10% fetal bovine serum, 10 mM HEPES, 1 mM sodium pyruvate, 2 mM L-glutamine, 0.05 mM 2-mercaptoethanol, 100 IU/mL penicillin and 100 μg/mL streptomycin (i.e., complete medium). Cells were maintained and experiments were conducted in a humidified atmosphere of 5% CO2 in air at 37° C. Select studies were carried out in glucose-free RPMI1640 culture medium supplemented with reagents as described above. In these experiments, the regular medium was exchanged for glucose-free medium 16 hours prior to the electrical stimulation experiment.
ACBPS was applied to cells using a C-Pace EP cell culture stimulator in combination with a C-dish electrode array for a 6-well plate. Control cells were mock stimulated using an identical 6-well C-dish electrode array that was not connected to the stimulator. Unless otherwise stated, the biphasic stimulation parameters were anodal followed by cathodal at 10 Hz (frequency), 5 milliseconds (ms) (total pulse duration), and 25 V (pulse magnitude).
Insulin release from INS-1 cells into the culture medium was determined by ELISA (Rat Insulin ELISA Kit) per the manufacturer's instructions. For these studies, cells were grown to approximately 95% confluency in 6-well plates containing 3 mL complete medium/well. 16 hours before stimulation, the medium was replaced with 3 mL fresh complete medium. Immediately prior to stimulation, the medium was aspirated, the cells were washed twice with 2 mL phosphate buffered saline (PBS), and then 3 mL fresh complete medium was added to each well. Cells were subjected to ACBPS (10 Hz, (2.5 ms)/(2.5 ms) pulse duration (i.e. anodal duration/cathodal duration), 10-25 V magnitude) or mock stimulation for the indicated times. At the end of the stimulation periods, a 0.5 mL sample of medium was removed from each well and stored frozen at −70° C. for later analysis. In some studies, cells were grown for 16 hours in glucose-free medium prior to stimulation. To examine a role for electrolysis products in promoting insulin release, an additional series of experiments were conducted that involved the application of ACBPS (10 Hz, (2.5 ms)/(2.5 ms) pulse duration, 25 V magnitude) or no stimulation (mock) for 30 min to 6-well plates containing only complete medium (3 mL per well) (i.e., no cells). At the end of the stimulation period, the “pre-stimulated” medium was transferred to cells that had been washed twice with PBS (as above). The cells were allowed to incubate with the pre-stimulated medium for 30 min, after which a 0.5 mL sample of medium was removed from each well and stored frozen at −70° C. for latter analysis. The insulin concentration of the culture medium was measured by colorimetric ELISA using 2 μL of the culture medium as described by the manufacturer. Culture medium samples and insulin standards were allowed to bind for 16 hours at 4° C.

Take `[Cl-].[K+]` [KCl]: the “DiBAC4(3) fluorescence” value in the assay with INS-1 cells [1] is given as “increased”.
Take `CC[C@@H]1/C=C/C=C/C[C@H](C)[C@H](O)[C@](C)(O)C(=O)[C@H](C)[C@@H](O)[C@H](C)C(=O)[C@H](C)[C@@H](O)[C@H](C)/C=C/C(=O)O[C@H]2[C@@H](C)[C@@H](CC1)O[C@@]1(CC[C@@H](C)[C@@H](C[C@H](C)O)O1)[C@@H]2C` [oligomycin A]: in the assay with INS-1 cells [2], the ACBPS-induced insulin release entry is “inhibited” and the basal insulin release entry is “inhibited”.
On to `CC(C)[C@@H]1NC(=O)[C@H](C)OC(=O)[C@@H](C(C)C)NC(=O)[C@@H](C(C)C)OC(=O)[C@H](C(C)C)NC(=O)[C@H](C)OC(=O)[C@@H](C(C)C)NC(=O)[C@@H](C(C)C)OC(=O)[C@H](C(C)C)NC(=O)[C@H](C)OC(=O)[C@@H](C(C)C)NC(=O)[C@@H](C(C)C)OC1=O` [valinomycin], for which the “DiBAC4(3) fluorescence” value with INS-1 cells [1] is listed as “decrease”.
As to `COc1ccc(CCN(C)CCCC(C#N)(c2ccc(OC)c(OC)c2)C(C)C)cc1OC` (centres unmarked) [verapamil], the basal insulin release result in the assay on INS-1 cells [2] is listed as “inhibited”.
Turning to Antimycin A, in the assay with INS-1 cells [2], the ACBPS-induced insulin release entry is on record as “inhibited” and the basal insulin release result is on record as “inhibited”.
As for gramicidin A, the “DiBAC4(3) fluorescence” value in the assay with INS-1 cells [1] is “increased”.
